# Earlier results as cited in PubChem BioAssay AID1259409 (Chemical Carcinogenesis Research Information System (CCRIS), 2018).
# Tested on: rodent chemically induced tumor inhibition, incidence and multiplicity
# Assay: CCRIS tumor inhibitor studies
# Conditions: Species: MOUSE
compound,measurement,setting,value
O.O.O.O.O.[Cd+2].[Cd+2].[Cl-].[Cl-].[Cl-].[Cl-],"tumour outcome (control, treated, inhibition, significance)","Carcinogen: NITROSODIETHYLAMINE, 55-18-5, Dose [Inhibitor]: 0, 1000 PPM IN DRINKING WATER BEGINNING 2 WK POST CARCINOGEN DOSE AND CONTINUING FOR DURATION OF STUDY (STUDY DURATION:, Route [Inhibitor]: ORAL, Strain/Sex: B6C3F1/MALE, Target Tissue: Type of Lesion: LIVER: TUMOR, Dose [Carcinogen]: 5 MG/ML IN TRICAPRYLIN ONCE AT 5 WK OF AGE, Promoter: NONE USED","22/25 (88%), 2/25 (8%), 91%, p<0.05"
same,"tumour outcome (control, treated, inhibition, significance)","Carcinogen: NITROSODIETHYLAMINE, 55-18-5, Dose [Inhibitor]: 0, 1000 PPM IN DRINKING WATER BEGINNING 2 WK POST CARCINOGEN DOSE AND CONTINUING FOR DURATION OF STUDY (STUDY DURATION:, Route [Inhibitor]: ORAL, Strain/Sex: B6C3F1/MALE, Target Tissue: Type of Lesion: LUNG: TUMOR, Dose [Carcinogen]: 5 MG/ML IN TRICAPRYLIN ONCE AT 5 WK OF AGE, Promoter: NONE USED","100%, 94%, 6%, not significant"
same,"tumour outcome (control, treated, inhibition, significance)","Carcinogen: NITROSODIETHYLAMINE, 55-18-5, Dose [Inhibitor]: 0, 1000 PPM IN DRINKING WATER BEGINNING 4 WK POST CARCINOGEN DOSE AND CONTINUING FOR DURATION OF STUDY (STUDY DURATION:, Route [Inhibitor]: ORAL, Strain/Sex: B6C3F1/MALE, Target Tissue: Type of Lesion: LIVER: TUMOR, Dose [Carcinogen]: 5 MG/ML IN TRICAPRYLIN ONCE AT 5 WK OF AGE, Promoter: NONE USED","22/25 (88%), 1/25 (4%), 95%, p<0.05"
same,"tumour outcome (control, treated, inhibition, significance)","Carcinogen: NITROSODIETHYLAMINE, 55-18-5, Dose [Inhibitor]: 0, 1000 PPM IN DRINKING WATER BEGINNING 4 WK POST CARCINOGEN DOSE AND CONTINUING FOR DURATION OF STUDY (STUDY DURATION:, Route [Inhibitor]: ORAL, Strain/Sex: B6C3F1/MALE, Target Tissue: Type of Lesion: LUNG: TUMOR, Dose [Carcinogen]: 5 MG/ML IN TRICAPRYLIN ONCE AT 5 WK OF AGE, Promoter: NONE USED","100%, 94%, 6%, not significant"
same,"tumour outcome (control, treated, inhibition, significance)","Carcinogen: NITROSODIETHYLAMINE, 55-18-5, Dose [Inhibitor]: 0, 1000 PPM IN DRINKING WATER BEGINNING 8 WK POST CARCINOGEN DOSE AND CONTINUING FOR DURATION OF STUDY (STUDY DURATION:, Route [Inhibitor]: ORAL, Strain/Sex: B6C3F1/MALE, Target Tissue: Type of Lesion: LIVER: TUMOR, Dose [Carcinogen]: 5 MG/ML IN TRICAPRYLIN ONCE AT 5 WK OF AGE, Promoter: NONE USED","22/25 (88%), 1/25 (4%), 95%, p<0.05"
same,"tumour outcome (control, treated, inhibition, significance)","Carcinogen: NITROSODIETHYLAMINE, 55-18-5, Dose [Inhibitor]: 0, 1000 PPM IN DRINKING WATER BEGINNING 8 WK POST CARCINOGEN DOSE AND CONTINUING FOR DURATION OF STUDY (STUDY DURATION:, Route [Inhibitor]: ORAL, Strain/Sex: B6C3F1/MALE, Target Tissue: Type of Lesion: LUNG: TUMOR, Dose [Carcinogen]: 5 MG/ML IN TRICAPRYLIN ONCE AT 5 WK OF AGE, Promoter: NONE USED","100%, 89%, 11%, not significant"
same,"tumour outcome (control, treated, inhibition, significance)","Carcinogen: NITROSODIETHYLAMINE, 55-18-5, Dose [Inhibitor]: 0, 1000 PPM IN DRINKING WATER BEGINNING 16 WK POST CARCINOGEN DOSE AND CONTINUING FOR DURATION OF STUDY (STUDY DURATION:, Route [Inhibitor]: ORAL, Strain/Sex: B6C3F1/MALE, Target Tissue: Type of Lesion: LIVER: TUMOR, Dose [Carcinogen]: 5 MG/ML IN TRICAPRYLIN ONCE AT 5 WK OF AGE, Promoter: NONE USED","22/25 (88%), 2/25 (8%), 91%, p<0.05"
same,"tumour outcome (control, treated, inhibition, significance)","Carcinogen: NITROSODIETHYLAMINE, 55-18-5, Dose [Inhibitor]: 0, 1000 PPM IN DRINKING WATER BEGINNING 16 WK POST CARCINOGEN DOSE AND CONTINUING FOR DURATION OF STUDY (STUDY DURATION:, Route [Inhibitor]: ORAL, Strain/Sex: B6C3F1/MALE, Target Tissue: Type of Lesion: LUNG: TUMOR, Dose [Carcinogen]: 5 MG/ML IN TRICAPRYLIN ONCE AT 5 WK OF AGE, Promoter: NONE USED","100%, 72%, 28%, p<0.05"
same,"tumour outcome (control, treated, inhibition, significance)","Carcinogen: NITROSODIETHYLAMINE, 55-18-5, Dose [Inhibitor]: 0, 1000 PPM IN DRINKING WATER BEGINNING 32 WK POST CARCINOGEN DOSE AND CONTINUING FOR DURATION OF STUDY (STUDY DURATION:, Route [Inhibitor]: ORAL, Strain/Sex: B6C3F1/MALE, Target Tissue: Type of Lesion: LIVER: TUMOR, Dose [Carcinogen]: 5 MG/ML IN TRICAPRYLIN ONCE AT 5 WK OF AGE, Promoter: NONE USED","22/25 (88%), 6/24 (25%), 72%, p<0.05"
same,"tumour outcome (control, treated, inhibition, significance)","Carcinogen: NITROSODIETHYLAMINE, 55-18-5, Dose [Inhibitor]: 0, 1000 PPM IN DRINKING WATER BEGINNING 32 WK POST CARCINOGEN DOSE AND CONTINUING FOR DURATION OF STUDY (STUDY DURATION:, Route [Inhibitor]: ORAL, Strain/Sex: B6C3F1/MALE, Target Tissue: Type of Lesion: LUNG: TUMOR, Dose [Carcinogen]: 5 MG/ML IN TRICAPRYLIN ONCE AT 5 WK OF AGE, Promoter: NONE USED","100%, 96%, 4%, not significant"
C[C@H]1O[C@@H](O[C@H]2[C@@H](O)C[C@H](O[C@H]3[C@@H](O)C[C@H](O[C@H]4CC[C@@]5(C)[C@H](CC[C@@H]6[C@@H]5CC[C@]5(C)[C@@H](C7=CC(=O)OC7)CC[C@]65O)C4)O[C@@H]3C)O[C@@H]2C)C[C@H](O)[C@@H]1O,"tumour outcome (control, treated, inhibition, significance)","Carcinogen: 4-NITROQUINOLINE-N-OXIDE, 56-57-5, Dose [Inhibitor]: 0, 0.25 MG/100 ML IN DRINKING WATER FOR 20 WK BEGINNING 5 WK POST CARCINOGEN DOSE (STUDY DURATION: 25 WK), Route [Inhibitor]: ORAL, Strain/Sex: ICR/FEMALE, Target Tissue: Type of Lesion: LUNG: TUMOR, Dose [Carcinogen]: 0.3 MG ONCE, Promoter: GLYCEROL, 56-81-5","100%, 53%, 47%, not calculated"
same,"tumour outcome (control, treated, inhibition, significance)","Carcinogen: 7,12-DIMETHYLBENZ[A]ANTHRACENE, 57-97-6, Dose [Inhibitor]: 0, 85 NMOL IN ACETONE 2/WK 1 HR PRIOR TO EACH PROMOTER DOSE FOR 20 WK (STUDY DURATION: 21 WK), Route [Inhibitor]: DERMAL, Strain/Sex: ICR/FEMALE, Target Tissue: Type of Lesion: SKIN: PAPILLOMA, Dose [Carcinogen]: 100 UG IN ACETONE ONCE, Promoter: 12-O-TETRADECANOYLPHORBOL-13-ACETATE, 16561-29-8","100%, 80%, 20%, not calculated"
CC1=C(/C=C/C(C)=C/C=C/C(C)=C\C(=O)Nc2nn[nH]n2)C(C)(C)CCC1,"tumour outcome (control, treated, inhibition, significance)","Carcinogen: N-BUTYL-N-(4-HYDROXYBUTYL)NITROSAMINE, 3817-11-6, Dose [Inhibitor]: 1.5 MMOL/KG DIET DAILY FOR 159 D STARTING 1 WK AFTER THE FINAL CARCINOGEN DOSE (STUDY DURATION: 216 D), Route [Inhibitor]: ORAL, Strain/Sex: BDF/MALE, Target Tissue: Type of Lesion: URINARY BLADDER: TRANSITIONAL CELL CARCINOMA, Dose [Carcinogen]: 7.5 MG 1/WK FOR 8 WK, Promoter: NONE USED","29/98 (30%), 26/100 (26%), 13%, not significant"
same,"tumour outcome (control, treated, inhibition, significance)","Carcinogen: N-BUTYL-N-(4-HYDROXYBUTYL)NITROSAMINE, 3817-11-6, Dose [Inhibitor]: 1.5 MMOL/KG/D IN DIET FOR 159 D STARTING 1 WK POST CARCINOGEN TREATMENT (STUDY DURATION: 216 D), Route [Inhibitor]: ORAL, Strain/Sex: BDF/MALE, Target Tissue: Type of Lesion: URINARY BLADDER: TRANSITIONAL CELL CARCINOMA, Dose [Carcinogen]: 7.5 MG 1/WK FOR 8 WK, Promoter: NONE USED","29/98 (30%), 26/100 (26%), 13%, not significant"
